Reference: patent US9617229B2, “Phenylmorpholines and analogues thereof” (Research Triangle Institute, priority 2010, dated 2017)

Biological target: DAT (Rattus norvegicus, UniProt P23977)
Experiment: DA uptake inhibition
Assay type: biochemical
Details: Table 5

Sequence of DAT (P23977 whole entry): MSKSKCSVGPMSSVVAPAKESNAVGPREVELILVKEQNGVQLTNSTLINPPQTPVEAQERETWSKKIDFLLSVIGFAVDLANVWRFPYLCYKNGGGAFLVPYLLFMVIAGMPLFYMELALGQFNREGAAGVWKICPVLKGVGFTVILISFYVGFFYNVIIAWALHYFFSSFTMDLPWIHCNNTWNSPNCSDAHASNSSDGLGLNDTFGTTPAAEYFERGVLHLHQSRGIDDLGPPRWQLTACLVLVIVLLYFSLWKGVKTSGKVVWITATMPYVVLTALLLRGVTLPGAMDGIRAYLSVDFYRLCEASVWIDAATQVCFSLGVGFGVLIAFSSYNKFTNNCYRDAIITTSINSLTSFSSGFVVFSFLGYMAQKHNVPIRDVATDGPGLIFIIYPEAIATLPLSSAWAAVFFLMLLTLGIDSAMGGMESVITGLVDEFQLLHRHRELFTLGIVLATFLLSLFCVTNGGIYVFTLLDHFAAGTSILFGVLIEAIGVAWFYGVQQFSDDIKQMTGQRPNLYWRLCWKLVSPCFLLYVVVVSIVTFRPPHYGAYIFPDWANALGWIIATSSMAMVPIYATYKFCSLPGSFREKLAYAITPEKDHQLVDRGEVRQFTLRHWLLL

Cc1ccc([C@H]2CN[C@@H](C)CO2)cc1 [PAL 914, (2S,5S)-5-Methyl-2-p-tolyl-morpholine]
DA Up (%): 88%

C[C@H]1CO[C@@H](c2ccc(Cl)cc2)CN1 [PAL 899, (2S,5S)-2-(4-Chloro-phenyl)-5-methyl-morpholine]
DA Up (%): 90%
